≈ marks a conversion by molar mass, not a printed value.
Columns and labels:
[1] = test system: Klebsiella pneumoniae; assay: Broth microdilution MIC (Example 12)
[2] = test system: Pseudomonas aeruginosa; assay: Broth microdilution MIC (Example 12)
[3] = test system: B. cepacia; assay: FIC checkerboard assay; type: cell-based; settings: during FIC testing
[4] = test system: P. aeruginosa; assay: FIC checkerboard assay; type: cell-based; settings: during FIC testing
[5] = test system: Acinetobacter baumannii; assay: Broth microdilution MIC (Example 12)
[6] = test system: B. cenocepacia; assay: FIC checkerboard assay; type: cell-based; settings: during FIC testing
[7] = test system: Pseudomonas aeruginosa strain PA01; assay: Bacterial killing curves with and without CF patient sputum

## C[C@@H](O)[C@H]1C(=O)N2C(C(=O)O)=C(S[C@@H]3CN[C@H](C(=O)N(C)C)C3)[C@H](C)[C@H]12 [MEM]
[1]; K. pneumoniae ATCC BAA-1705, ESBL/KPC
  MIC: 8 µg/mL (≈ 20.9 µM)
[1]; K. pneumoniae CDC 112, KPC
  MIC: >8 µg/mL
[1]; K. pneumoniae CDC 113, ESBL/KPC
  MIC: >8 µg/mL
[1]; K. pneumoniae CDC 115, ESBL/KPC
  MIC: >8 µg/mL
[1]; K. pneumoniae CDC 120, ESBL/KPC
  MIC: >8 µg/mL
[1]; K. pneumoniae CDC 126, ESBL/KPC
  MIC: 4 µg/mL (≈ 10.4 µM)
[1]; K. pneumoniae CDC 129, ESBL/KPC
  MIC: 8 µg/mL (≈ 20.9 µM)
[1]; K. pneumoniae CDC 135, ESBL/VIM
  MIC: 1 µg/mL (≈ 2.61 µM)
[1]; K. pneumoniae CDC 138, ESBL/NDM
  MIC: >8 µg/mL
[1]; K. pneumoniae CDC 158, ESBL/NDM/OXA
  MIC: >8 µg/mL
[1]; K. pneumoniae MMX 9029, ESBL
  MIC: 0.015 µg/mL (≈ 0.0391 µM)
[2]; P. aeruginosa CDC 230, VIM/OXA
  MIC: >8 µg/mL
[2]; P. aeruginosa CDC 231, KPC/OXA
  MIC: >8 µg/mL
[2]; P. aeruginosa CDC 241, IMP/OXA
  MIC: >8 µg/mL
[2]; P. aeruginosa CDC 246, NDM/OXA
  MIC: >8 µg/mL
[2]; P. aeruginosa CDC 250, NDM/OXA
  MIC: >8 µg/mL
[2]; P. aeruginosa CDC 356, KPC
  MIC: >8 µg/mL
[2]; P. aeruginosa CDC 439, IMP
  MIC: >8 µg/mL
[2]; P. aeruginosa CDC 444, VIM
  MIC: >8 µg/mL
[2]; P. aeruginosa CDC 457, VIM
  MIC: >8 µg/mL
[2]; P. aeruginosa CDC 516, KPC/AmpC
  MIC: >8 µg/mL
[2]; P. aeruginosa CDC 518, KPC/AmpC
  MIC: >8 µg/mL
[3]; B. cepacia isolate 0546
  MIC: 4 µg/mL
[3]; B. cepacia isolate 1793
  MIC: 4 µg/mL
[4]; P. aeruginosa isolate 103 (ATCC 25922), each agent tested alone, one replicate, for QC
  MIC: 1 µg/mL
[4]; P. aeruginosa isolate 6322 (MEM-R, TOB-R, AMK-R, CIP-R, AZT-R)
  MIC: 16 µg/mL
[4]; P. aeruginosa isolate 6977 (MEM-I, TOB-R, CIP-R, AZT-I)
  MIC: 8 µg/mL
[4]; P. aeruginosa isolate 7745 (MEM-R, CIP-R, AZT-R)
  MIC: 16 µg/mL
[4]; P. aeruginosa isolate 8798 (MEM-R, TOB-R, AMK-R, CIP-R, AZT-R, COL-R)
  MIC: 32 µg/mL
[4]; P. aeruginosa isolate 9108 (CIP-R, AZT-I)
  MIC: 1 µg/mL
[5]; A. baumannii CDC 273, ESBL/OXA
  MIC: >8 µg/mL
[5]; A. baumannii CDC 274, ESBL/OXA
  MIC: >8 µg/mL
[5]; A. baumannii CDC 275, ESBL/OXA
  MIC: >8 µg/mL
[5]; A. baumannii CDC 277, ESBL/OXA
  MIC: >8 µg/mL
[5]; A. baumannii CDC 284, ESBL/OXA
  MIC: >8 µg/mL
[5]; A. baumannii CDC 307, OXA
  MIC: 8 µg/mL (≈ 20.9 µM)
[5]; A. baumannii CDC 308, ESBL/OXA
  MIC: 8 µg/mL (≈ 20.9 µM)
[5]; A. baumannii CDC 311, OXA
  MIC: >8 µg/mL
[5]; A. baumannii CDC 312, OXA
  MIC: 4 µg/mL (≈ 10.4 µM)
[5]; A. baumannii CDC 313, ESBL/OXA
  MIC: >8 µg/mL
[5]; A. baumannii NCTC 13304, OXA
  MIC: >8 µg/mL
[6]; B. cenocepacia isolate 0548 (CIP-R)
  MIC: 4 µg/mL
[6]; B. cenocepacia isolate 0813 (CIP-I)
  MIC: 2 µg/mL

## C1C[S][Bi]([S]CC[S][Bi]2[S]CC[S]2)[S]1 [BisEDT, bismuth-1,2-ethanedithiol]
[7]; 0.1 μg/mL
  bactericidal activity against PA01: not bactericidal
[7]; 10% CF patient sputum
  effect of CF patient sputum on bactericidal activity: partially inhibited

Source: patent publication US11464749B2, “Bismuth-thiol compositions and methods of use” (Microbion Corporation, priority 2018, dated 2022)
